In brackets after ≈: the same amount, converted by molar mass. Where two headings read alike, the source gives them in different places.
Tests used:
[1] = tested on: DH5α E. coli; test: MIC against DH5α E. coli; assay type: cell-based; details: Escherichia coli, no additional antimicrobial; MICs in table limited to […]; read-out: Minimum inhibitory concentration against DH5α E. coli
[2] = tested on: K12 E. coli; test: MIC against K12 E. coli; assay type: cell-based; details: Escherichia coli
[3] = tested on: Escherichia coli; details: administered with ½ MIC of C8LE; earlier work, no reference given; cited from earlier work
[4] = tested on: DH5α E. coli; design: method as in PMID 15858645; details: free bases, previously reported data; cited from earlier work
[5] = Planar bilayer voltage clamp; details: 70 mV, KCl 450 mM, HEPES 10 mM, pH 7
Description: This compound was therefore converted into its bis(methiodide) to form C11LE•2MeI (8). It is clear from the trace shown that only spiking behavior was observed and a large opening eventually emerged. […] The formation of a large opening in the membrane comports with the expectation of increased permeability. Such an opening is also in accord with the observation (see above) of depolarization of bacterial membranes.
Figure 18 Planar bilayer voltage clamp trace for C11LE•2MeI (8) at 70 mV. Axes: Y = millivolts and X axis = 10 s per section. Conditions: soybean asolectin membrane, KCl (450 mm) buffer solution (HEPES, 10 mm, pH 7).
The planar bilayer experiments were conducted as described previously.

[6] = target: T1, NorA efflux pumps in S. aureus 1199B (Staphylococcus aureus, UniProt P0A0J7); test: Efflux pump inhibition (EthBr accumulation); assay type: cell-based; design: Efflux pump inhibition (increase in EthBr fluorescence): dose or concentration left out as unconfirmed; details: […] µM compound
T1 construct: Increase in EthBr fluorescence observed by its accumulation in S. aureus 1199B cytosol; endogenous in cells; host or cells: Staphylococcus aureus 1199B (whole bacteria)
Description: An important reason for the choice of S. aureus 1199B for study is that its resistance to norfloxacin is known to result from the presence of the Nor A efflux pump. Efflux pumps require regulated ion balance to function so that exogeneous substances such as antibacterials can effectively be ejected. Ethidium bromide (EthBr) can penetrate bacteria and is detectable by its fluorescence. To the extent that ion homeostasis is disrupted, ion balance is deregulated, and efflux pump function is compromised or inhibited.
Experimental details have been reported in [44].

[7] = tested on: S. aureus 1199B; test: Growth curves; assay type: cell-based, Staphylococcus aureus; details: ½ MIC, OD600 over 24 h
Method: In the studies above, 1–6 were administered at ½ MIC concentrations. At these concentrations, no toxic effect of the compound on cells was anticipated. In order to confirm the effect of compound concentration on S. aureus viability, growth curves were conducted for each compound. In all cases, S. aureus alone was used as control. For the three C10LE compounds (1–3), 32 µM and 64 µM concentrations of norfloxacin were added to the norfloxacin-resistant S. aureus strain as an additional control. The concentration ranges for each of compounds 1–6 varied with their potencies.
The determination of growth curves was performed against S. aureus 1199B, which is norfloxacin resistant at 32 µM. Norfloxacin was used at 64 µM as a control. The compounds tested were 1–6, C10LE and C12LE and their hydrochlorides and methiodides. S. aureus 1199B was cultured overnight from a single CFU and reduced to OD600 = 0.55 before use. Samples were prepared in LB media to which was added either the norfloxacin control or the combination of norfloxacin and one of the compounds C10LE (1), C10LE•2HCl (2), C10LE•2MeI (3), C12LE (4), C12LE•2HCl (5), or C12LE•2MeI (6). Dimethylsulfoxide (DMSO) was used to solubilize the lariat ether derivative, when necessary, but its concentration was never allowed to exceed 0.5% (v/v) in all experiments. […] The absorbance of each sample (600 nm) was recorded every quarter hour for 24 h.

[8] = tested on: Tet^R E. coli; test: MIC against Tet^R E. coli; assay type: cell-based
[9] = tested on: S. aureus; test: MIC against S. aureus under various pH and media conditions; assay type: cell-based, Staphylococcus aureus
[10] = tested on: S. aureus; test: Membrane depolarization by DiBAC4(3) fluorescence; assay type: cell-based, Staphylococcus aureus; details: compound at ½ MIC
Method: Disruption of ion homeostasis by 1–6 should be apparent in the associated membrane depolarization. […] The dye is readily absorbed by bacteria owing to the negative internal potential. Disruption of ion homeostasis will affect both proton and potassium cation regulation. The internalized, self-quenched dye will be released and increased fluorescence will be observed.
Two types of experiments were performed to assess membrane depolarization. […] If ion homeostasis is affected by the presence of any of these compounds, the fluorescent response should increase as the lariat ether concentration increased.
A second series of experiments was performed to determine the relationship of disrupted ion homeostasis, as reflected in membrane depolarization with cellular vitality (Figure 17). […] Alamar blue (see above) was used to determine cell viability. No depolarization was apparent in the S. aureus control in the absence of a lariat ether or lariat ether derivative. Depolarization was greatest for C10LE•MeI (3). […] We note that the MIC values for S. aureus observed for 2, 3, 5, and 6 were similar.
The membrane depolarization study was conducted as described in [48].

[11] = Dynamic light scattering of C12LE aggregation; assay type: physicochemical; details: water, in the presence of the antimicrobial or C12LE alone
Method: It is known that dialkyldiazacrowns form stable aggregates in aqueous solution [57, 62]. It was hypothesized that complexation between antimicrobials and macrocycles would alter or prevent the ability of the complex to form aggregates. […] Indeed, the particle sizes observed when chlortetracycline is present was almost indistinguishable from particle formation by C12LE (4) alone.
Measurements were performed on a Brookhaven Instruments Corp. ZetaPALS instrument at 25 °C using a 660 nm laser and correlating scattering at 90°. Samples were prepared by initially dissolving the amphiphile in filtered DMSO obtained from ThermoFisher. Next, they were diluted into 1× PBS such that DMSO was fixed at 0.5% in 15 mL sterile conical tubes. 10× PBS was obtained commercially, then diluted 10-fold in MQ H2O. The mixture was vortexed and incubated at room temperature for 2 h, then transferred to a clean quartz cuvette and equilibrated in the instrument for 10 min at 25 °C. Ten measurements consisting of 2 min runs were made on each sample. The average effective diameter was calculated with standard error reported for at least three trials.

[12] = tested on: S. aureus 1199B; test: MIC against S. aureus 1199B; assay type: cell-based, Staphylococcus aureus; details: MHII media, 90% growth inhibition
[13] = Turbidimetric solubility limit in MHII or PBS; assay type: physicochemical; details: DMSO ≤0.5%

T1 sequence (P0A0J7 whole entry): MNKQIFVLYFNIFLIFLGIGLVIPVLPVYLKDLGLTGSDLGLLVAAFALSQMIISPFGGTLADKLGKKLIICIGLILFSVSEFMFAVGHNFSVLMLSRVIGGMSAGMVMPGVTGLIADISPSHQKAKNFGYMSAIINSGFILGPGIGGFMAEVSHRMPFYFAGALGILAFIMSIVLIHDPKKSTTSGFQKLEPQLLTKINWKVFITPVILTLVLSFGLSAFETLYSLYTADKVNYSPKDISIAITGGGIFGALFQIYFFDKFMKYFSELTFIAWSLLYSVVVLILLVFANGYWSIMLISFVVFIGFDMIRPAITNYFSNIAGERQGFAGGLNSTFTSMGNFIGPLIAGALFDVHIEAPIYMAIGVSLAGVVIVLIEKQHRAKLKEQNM

| SMILES | MIC [1] [µM] | MIC ([2]; read-out: MIC K12 E. coli, MHII media, 90% growth inhibition) [µM] | Fold increase in potency of rifampicin against E. coli [3] [fold] | Minimum inhibitory concentration against DH5α E. coli [4] [µM] | Channel formation in planar bilayer [5] | Efflux pump inhibition (increase in EthBr fluorescence) [6] | Effect on bacterial growth (growth curves) [7] | MIC ([8]; Escherichia coli, read-out: MIC Tet^R E. coli) [µM] | MIC Tet^R E. coli ([8]; MHII media, 90% growth inhibition) | melting point [°C] | MIC ([9]; MHII, pH 6.4, read-out: MIC S. aureus, MHII pH 6.4) [µM] | MIC ([9]; MHII, pH 7.4, read-out: MIC S. aureus, MHII pH 7.4) [µM] | Change in MIC as the pH was increased from 6.4 to 8.4 ([9]; S. aureus, Mueller Hinton medium) | MIC ([9]; Staphylococcus aureus, pH 8.4, MHII, pH 8.4, read-out: MIC S. aureus, MHII pH 8.4) [µM] | Membrane depolarization (DiBAC4(3) fluorescence) [10] | Slope of C12LE aggregation (DLS particle size) [11] | MIC S. aureus 1199B [12] [µM] | MIC ([2]; MHII media, 90% growth inhibition, read-out: MIC K12 E. coli) [µM] | solubility at 2 h ([13]; Mueller Hinton II, pH 7.3, 2 h at 37 °C, read-out: Solubility limit in MHII) [µM] | solubility at 2 h ([13]; phosphate-buffered saline, 2 h at 37 °C, read-out: Solubility limit in PBS) [µM] |
| --- | --- | --- | --- | --- | --- | --- | --- | --- | --- | --- | --- | --- | --- | --- | --- | --- | --- | --- | --- | --- |
| CCCCCCCCN1CCOCCOCCN(CCCCCCCC)CCOCCOCC1 [C8LE (7)] | 206 (≈ 100 µg/mL) | 100 (≈ 48.7 µg/mL) | 20 | >128 | – | – | – | – | – | – | – | – | – | – | – | – | – | – | – | – |
| CCCCCCCCCCC[N+]1(C)CCOCCOCC[N+](C)(CCCCCCCCCCC)CCOCCOCC1 (stereo not drawn) [C11LE•2MeI (8)] | – | – | – | – | does not form stable channels | – | – | – | – | – | – | – | – | – | – | – | – | – | – | – |
| CCCCCCCCCCCCN1CCOCCOCCN(CCCCCCCCCCCC)CCOCCOCC1 [C12LE (4), N,N′-Di-n-dodecyl-4-13-diaza-18-crown-6] | > 128 | – | – | – | – | most potent efflux pump inhibition | growth effects were observed at ½ MIC and lower | > 64 | inactive | 141 to 144 | >16 | >32 | changes in MIC were observed | > 64 | failed to show any significant evidence of membrane depolarization | 2.95 | 32 (≈ 19.2 µg/mL) | > 128 | 16 (≈ 9.58 µg/mL) | 16 (≈ 9.58 µg/mL) |

— paper PMC10603992, “Antimicrobial and Adjuvant Potencies of Di-n-alkyl Substituted Diazalariat Ethers” (Antibiotics, 2023)
